Experimental data from article PMC4438233, “Antibacterial effects of Traditional Chinese Medicine monomers against Streptococcus pneumoniae via inhibiting pneumococcal histidine kinase (VicK)” (Frontiers in Microbiology, 2015).
Read-outs that look alike come from different tables or passages of the source.

Tests used:
S. mutans = assay: MIC against S. mutans; type: cell-based; settings: Streptococcus mutans
Experimental: (§1) Minimum inhibitory concentration (MIC) assays for the antibacterial activities of the compounds were performed according to the standard […] method of the Clinical and Laboratory Standards Institute of America. MIC testing of drug-resistant S. pneumoniae, drug-resistant S. aureus, streptococci and antimicrobial combination was also performed using the same method. Briefly, the drugs were serially diluted 2-fold into eight wells with C+Y medium, yielding final concentrations ranging from […]. Then 10^6 CFU bacteria were added to each well. Inoculated medium containing 1% DMSO served as a bacterial growth control, whereas uninoculated medium served as a sterility control. The plates were incubated at 37°C for 12–16 h. […] The experiment was repeated three times.

S. pseudopneumoniae = assay: MIC against S. pseudopneumoniae; type: cell-based; settings: Streptococcus pseudopneumoniae
Experimental: as §1

Cytotoxicity assay (MTT) = type: cell-based; settings: African green monkey
Experimental: The cytotoxicity of the drugs to Vero cells (African green monkey kidney cells) was detected as previously described (Huang et al., [2012]) with minor modifications. In 96-well cell culture plates, the cells (~10^3 cells per well) were exposed to the serially diluted drugs for 48 h. Then, relative cell numbers were assayed by co-incubation with 3-(4, 5-dimethylthiazol-2-yl)-2, 5-diphenyltetrazolium bromide for 4 h at 37°C in 5% CO2. Purple formazan salts were dissolved with DMSO after incubation. The absorbance of each well was measured at 595 nm and then converted to percentages of the control (cells treated with 1% DMSO). The concentration of the derivatives with 50% cytotoxicity for Vero cells (CC50) was calculated using GraphPad Prism 5 (San Diego, CA).

[1] = system: S. pneumoniae NCTC7466 biofilm; assay: Biofilm-killing assay (crystal violet); type: cell-based, Streptococcus pneumoniae; settings: crystal violet staining; 15.6–2000 μM; MIC or sub-MIC levels
Experimental: Biofilm formation was detected using a semiquantitative plate assay (Moscoso et al., [2006]). 10^6 CFU of D39 was incubated in C+Y medium for 6 h in a 96-well plate at 37°C. Then removed the planktonic cells, fresh C+Y medium containing the serially diluted drugs was added to each well and incubated for another 12 h at 37°C. The wells were washed gently three times with phosphate-buffered saline (PBS) and then stained with 1% (w/v) crystal violet. 200 μL methanol was added to dissolve the precipitate and determine the absorbance of the wells at 590 nm using a spectrophotometer (DTX880, Beckman Coulter, USA). The values of biofilm formation were normalized for absorbance, and the percentages were calculated in relation to control. The experiment was repeated twice.

| SMILES | MIC (S. mutans; S. mutans clinical isolate, 10^6 CFU/ml, read-out: MIC) | MIC (S. pseudopneumoniae; S. pseudopneumoniae clinical isolate, 10^6 CFU/ml, read-out: MIC) | CC50 at 48 h (Cytotoxicity assay (MTT); Vero cells (African green monkey kidney cells)) | inhibition of biofilm formation [1] | MIC (S. mutans) | MIC (S. pseudopneumoniae) | CC50 at 48 h (Cytotoxicity assay (MTT); Vero cells) |
| --- | --- | --- | --- | --- | --- | --- | --- |
| CCCCCCCCCCCCOC(=O)c1cc(O)c(O)c(O)c1 [Compound 5, Dodecyl gallate] | 42 µg/mL | 42 µg/mL | 6.45 mM | inhibit biofilm formation at sub-MIC |  |  |  |
| CC(C)=CCCC1=CC(=O)c2c(O)ccc(O)c2C1=O [Compound 3, Deoxyshikonin] |  |  |  | inhibit biofilm formation at sub-MIC | 34 µg/mL | 136 µg/mL | 4.68 mM |
